Source: patent US20120034193A1, “TREATMENT OF NEUROTROPHIC FACTOR MEDIATED DISORDERS” (priority 2009, published 2012)

Columns and labels:
Rat cortical neurones [1] = assay: Neuronal survival and neurite outgrowth of cortical neurones cultured in the absence of serum; format: cell-based; details: 30 nM, one day, no serum
Method: Rat cortical neurones were cultured following the method described above.
The test compounds were added for 24 h.
Rat cortical neurones were exposed to sarsasapogenin, smilagenin (30 nM) or vehicle (DMSO, 0.25%) in the absence FBS or FCS for one day. Cortical neurones were stained using a monoclonal antibody anti β-tubulin diluted and an anti mouse Immunoglobulin G diluted. These antibodies stained neurone cell bodies (quantifying the neuroprotective effect) and neurites (quantifying the neurotrophic effect). An epifluorecence microscope (magnification ×20) with a camera took 2 pictures per well (10 pictures per condition). Analyses of the number of cells labelled with anti β-tubulin antibodies and of the total number of cells was performed using LUCIA 6.0 software.

Rat cortical neurones [2] = assay: Reversal of glutamate-induced damage in cortical neurones; format: cell-based; details: 30 nM for 24 h after glutamate 100 μM 10 min
Method: The rat cortical neurones were prepared as detailed above. On day 13, cultures were exposed to glutamate (100 μM) for 10 min at 37° C. in 5% CO2/95% air atmosphere in defined medium. Following the incubation period, the cultures were washed and maintained in fresh medium, containing sarsasapogenin, smilagenin or vehicle. Cells were cultured for a further 24 h after glutamate exposure and were then assessed for neuronal damage as detailed above.

[3] = Tissue distribution after a single oral administration, rat; format: in vivo; details: 18 mg/kg single oral
[4] = system: rat primary cortical neurones; assay: Pre-treatment against glutamate-induced damage (LDH) in cortical neurones; format: cell-based; details: for Neuronal survival (% of control): 24 h before and 24 h after glutamate 100 μM 10 min
trkB mRNA = trkB mRNA expression in rat cortical neurones under basal conditions (rt RT-PCR); format: cell-based; details: 30 nM
Method: Rat cortical neurones were cultured by modification of a method previously described (Singer, et al., Neuroscience Letters, 1996, 212, pp. 13-16). Twelve days after the start of culturing, sarsasapogenin (30 nM), smilagenin (30 nM), 4-methylcatechol (0.5 mM), an inducer of NGF and BDNF release (Saporito et al., Experimental Neurology., 1993, 123, pp. 295-302; Nitta et al., Journal of Pharmacology and Experimental Therapeutics, 1999, 291, pp. 1276-1283) or vehicle (dimethyl sulfoxide, DMSO, 0.25%) were added for 1, 3 or 6 h. After incubation the total messenger ribonucleic acid (mRNA) was quantified using real time reverse transcription-polymerase chain reaction (rt RT-PCR).

[5] = system: rat primary cortical neurones; assay: ChAT positive neurones and neurite outgrowth after β-amyloid exposure; format: cell-based; details: 10 μM pre-incubation 48 h, then β-amyloid 10 μg/ml 48 h
Method: Rat cortical neurones were cultured by modification of a method previously described (Eckenstein and Sofroniew, Journal of Neuroscience, 1983, 3, pp. 2286-2291). On day 8, the culture medium was changed to a medium containing vehicle (DMSO, 0.5%) or smilagenin or sarsasapogenin (10 μM). On day 10, rat primary cortical neurones were exposed to β-amyloid (10 μg/ml) for 48 h at 37° C. and the concentration of BDNF in the culture medium, the number of choline acetyltransferase (ChAT) positive cells, and the neurite outgrowth was measured (smilagenin only).

[6] = Tissue distribution after a single oral administration, dog; format: in vivo; details: Dog M, 10 mg/kg single oral
[7] = system: Rat dopaminergic neurones; assay: TH positive neurones and neurite outgrowth after MPP+ exposure; format: cell-based; details: 10 μM from day 6, MPP+ 2 μM day 8 for 48 h
Method: Rat dopaminergic neurones were prepared using a slightly modified previously described method (Brouard et al., Journal of Neuroscience, 1992, 12, pp. 1409-1415). On day 6 the culture medium was replaced with fresh medium or fresh medium containing smilagenin (10 μM) or vehicle (DMSO, 0.25%). On day 8, MPP^+ (2 μM) or vehicle (saline) was added and 48 h later dopaminergic neurones were stained and the concentration of GDNF in the culture medium, neuronal damage and neurite outgrowth were assessed.

For `C[C@@H]1CC[C@@]2(OC1)O[C@H]1C[C@H]3[C@@H]4CC[C@@H]5C[C@@H](O)CC[C@]5(C)[C@H]4CC[C@]3(C)[C@H]1[C@@H]2C` [Smilagenin, smilagenin], the “Neurite outgrowth (% of control)” value (Rat cortical neurones [1]) was 173.89 ± 9.23 % of control, the “Neuronal survival (% of control)” value (Rat cortical neurones [1]) was 155.36 ± 4.75 % of control and the “Neuronal survival (% of control)” value (Rat cortical neurones [2]) was 111.06 ± 3.40 % of control. The “Concentration of compound, Brain” value ([3]; Rat F, 1 h) was 704 ng equivalents/g tissue, the “Concentration of compound, Plasma” value ([3]; Rat F, 1 h) was 1626 ng equivalents/g tissue and the “Concentration of compound, Spinal cord” value ([3]; Rat F, 1 h) was 608 ng equivalents/g tissue. For the same molecule, the “Concentration of compound, Brain” value ([3]; Rat F, 4 h) was 2330 ng equivalents/g tissue, the “Concentration of compound, Plasma” value ([3]; Rat F, 4 h) was 1824 ng equivalents/g tissue and the “Concentration of compound, Spinal cord” value ([3]; Rat F, 4 h) was 2049 ng equivalents/g tissue. For the same molecule, the “Concentration of compound, Brain” value ([3]; Rat F, 8 h) was 2940 ng equivalents/g tissue, the “Concentration of compound, Plasma” value ([3]; Rat F, 8 h) was 1658 ng equivalents/g tissue and the “Concentration of compound, Spinal cord” value ([3]; Rat F, 8 h) was 2823 ng equivalents/g tissue. For the same molecule, the “Concentration of compound, Brain” value ([3]; Rat F, 24 h) was 954 ng equivalents/g tissue, the “Concentration of compound, Plasma” value ([3]; Rat F, 24 h) was 394 ng equivalents/g tissue and the “Concentration of compound, Spinal cord” value ([3]; Rat F, 24 h) was 1284 ng equivalents/g tissue. The “Concentration of compound, Brain” value ([3]; Rat F, 168 h) was 52 ng equivalents/g tissue, the “Concentration of compound, Plasma” value ([3]; Rat F, 168 h) was 46 ng equivalents/g tissue and the “Concentration of compound, Spinal cord” value ([3]; Rat F, 168 h) was 243 ng equivalents/g tissue. The “Concentration of compound, Brain” value ([3]; Rat M, 1 h) was 769 ng equivalents/g tissue, the “Concentration of compound, Plasma” value ([3]; Rat M, 1 h) was 2045 ng equivalents/g tissue and the “Concentration of compound, Spinal cord” value ([3]; Rat M, 1 h) was 958 ng equivalents/g tissue. For the same molecule, the “Concentration of compound, Brain” value ([3]; Rat M, 4 h) was 3372 ng equivalents/g tissue, the “Concentration of compound, Plasma” value ([3]; Rat M, 4 h) was 3842 ng equivalents/g tissue and the “Concentration of compound, Spinal cord” value ([3]; Rat M, 4 h) was 3286 ng equivalents/g tissue. For the same molecule, the “Concentration of compound, Brain” value ([3]; Rat M, 8 h) was 4457 ng equivalents/g tissue, the “Concentration of compound, Plasma” value ([3]; Rat M, 8 h) was 3896 ng equivalents/g tissue and the “Concentration of compound, Spinal cord” value ([3]; Rat M, 8 h) was 4520 ng equivalents/g tissue. The “Concentration of compound, Brain” value ([3]; Rat M, 24 h) was 1417 ng equivalents/g tissue, the “Concentration of compound, Plasma” value ([3]; Rat M, 24 h) was 857 ng equivalents/g tissue and the “Concentration of compound, Spinal cord” value ([3]; Rat M, 24 h) was 1957 ng equivalents/g tissue. The “Concentration of compound, Brain” value ([3]; Rat M, 168 h) was 122 ng equivalents/g tissue, the “Concentration of compound, Plasma” value ([3]; Rat M, 168 h) was 122 ng equivalents/g tissue and the “Concentration of compound, Spinal cord” value ([3]; Rat M, 168 h) was 256 ng equivalents/g tissue. For the same molecule, the “Neuronal survival (% of control)” value ([4]; 1 nM) was 81.53 ± 1.66 % of control, the “Neuronal survival (% of control)” value ([4]; 3 nM) was 78.19 ± 1.85 % of control and the “Neuronal survival (% of control)” value ([4]; 10 nM) was 82.50 ± 1.00 % of control. For the same molecule, the “Neuronal survival (% of control)” value ([4]; 30 nM) was 89.86 ± 3.55 % of control, the “Neuronal survival (% of control)” value ([4]; 100 nM) was 82.45 ± 2.18 % of control and the “Toxicity at the plateau of activity” value ([4]; nanomolar concentration, cortical neurones in vitro) was “without causing any toxicity”. For the same molecule, the “trkB mRNA, % increase above control” value (trkB mRNA; 1 h) was 21%, the “trkB mRNA, % increase above control” value (trkB mRNA; 3 h) was 55% and the “trkB mRNA, % increase above control” value (trkB mRNA; 6 h) was “No increase”. For the same molecule, the “Neurite outgrowth (% of control)” value [5] was 85.8 ± 4.0 % of control, the “Number of ChAT positive neurones per field (% of control)” value [5] was 70.1 ± 9.6 % of control and the “Concentration of compound, Brain” value ([6]; 2 h) was 3670 ng equivalents/g tissue. The “Concentration of compound, Plasma” value ([6]; 2 h) was 3878 ng equivalents/g tissue, the “Concentration of compound, Spinal cord” value ([6]; 2 h) was 1805 ng equivalents/g tissue and the “Concentration of compound, Brain” value ([6]; 24 h) was 5813 ng equivalents/g tissue. For the same molecule, the “Concentration of compound, Plasma” value ([6]; 24 h) was 1508 ng equivalents/g tissue, the “Concentration of compound, Spinal cord” value ([6]; 24 h) was 3647 ng equivalents/g tissue and the “Concentration of compound, Brain” value ([6]; 168 h) was 1727 ng equivalents/g tissue. For the same molecule, the “Concentration of compound, Plasma” value ([6]; 168 h) was 1129 ng equivalents/g tissue, the “Concentration of compound, Spinal cord” value ([6]; 168 h) was 3165 ng equivalents/g tissue and the “Neurite outgrowth (% of control)” value [7] was 62.1 ± 7.0 % of control. For the same molecule, the “Number of TH positive neurones per field (% of control)” value [7] was 57.1 ± 5.2 % of control.
